The numbers were not newly measured in US20240382574A1, “METHODS AND COMPOSITIONS FOR ORALLY DOSING ANIMALS” (Animal Science Products, Inc., priority 2023, published 2024), which cites them from elsewhere.

The data set has as its system piglets. To be noted: previous research.

Turning to 3-methylindole (skatole), the attraction of piglets result is “piglets are attracted to these molecules”.
As for `CCCCCCCCCCCCCC(=O)O` [myristic acid, tetradecanoic acid (myristic acid)], the attraction of piglets result was “piglets are attracted to these molecules”.
